{"source": "paper PMC12947280", "about": "“An Antifungal with a Novel Mechanism of Action Discovered via Resistance Gene-Guided Genome Mining” (ACS Central Science, 2026)", "key": {"S. cerevisiae ALS": {"target": "T1, S. cerevisiae ALS (Saccharomyces cerevisiae, UniProt P07342)", "T1 construct": "made in house; host or cells: E. coli BL21 (DE3), pET28a-ScILV2", "T1 sequence (P07342 58-687)": "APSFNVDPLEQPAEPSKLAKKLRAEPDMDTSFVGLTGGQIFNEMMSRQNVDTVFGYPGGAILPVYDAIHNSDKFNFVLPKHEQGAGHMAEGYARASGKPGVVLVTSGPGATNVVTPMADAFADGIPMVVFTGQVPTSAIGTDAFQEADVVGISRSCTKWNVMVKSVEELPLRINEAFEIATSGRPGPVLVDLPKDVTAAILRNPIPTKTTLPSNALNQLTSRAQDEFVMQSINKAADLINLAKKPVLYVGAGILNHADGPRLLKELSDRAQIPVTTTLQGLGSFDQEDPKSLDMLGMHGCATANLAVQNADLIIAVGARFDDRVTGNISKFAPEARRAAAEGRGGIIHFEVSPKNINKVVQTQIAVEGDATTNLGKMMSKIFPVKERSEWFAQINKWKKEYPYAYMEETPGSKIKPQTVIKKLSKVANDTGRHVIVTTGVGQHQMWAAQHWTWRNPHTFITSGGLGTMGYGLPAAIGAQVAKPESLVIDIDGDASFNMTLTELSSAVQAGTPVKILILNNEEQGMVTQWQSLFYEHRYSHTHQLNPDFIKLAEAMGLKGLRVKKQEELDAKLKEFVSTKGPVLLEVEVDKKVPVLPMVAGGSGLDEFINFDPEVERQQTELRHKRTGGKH", "experiment": "Kinetic characterization: IC50 vs concentration of active ALS", "type": "biochemical", "details": "IC50 equal to half the concentration of active ALS"}, "ScALS": {"target": "T2, ScALS (Saccharomyces cerevisiae, UniProt P07342)", "T2 construct": "made in house; host or cells: E. coli BL21 (DE3), pET28a-ScILV2", "T2 sequence (P07342 58-687)": "as above", "experiment": "Intact protein mass spectrometry", "type": "binding", "details": "10 μM, 30 min", "description": "We next characterized the structural basis for binding of 1 to ALS. Given the strained structure and the observed tight binding kinetics, we hypothesized that 1 may be binding covalently. Analysis of ALS from both AfALS and ScALS by intact protein mass spectrometry yielded traces with multiple proteoforms for both proteins. […] Limited proteolysis followed by peptide mapping localized the covalent attachment to the 239[…]258 peptide of ScALS with Lys251 and Asp252 (equivalent to Lys310 and Asp311 in AfALS) serving as the most likely attachment sites (Figure S7).\nBiomek FX, Beckman Coulter Fullerton CA) were used to conduct serial dilutions and liquid […]\nSolutions of 1 were added in an 11 point 2x serial dilution in DMSO with a maximum tested concentration of 32 μg/ml in the culture medium. Drug solution was added at 1% v/v into 200 μl […]\nAfter digestion, the peptide mixture was immediately analysed by LC-MS/MS using a Waters I-class UPLC equipped with an ACQUITY UPLC BEH C18 column (2.1x50 mm, 1.7 µm, Waters) at 50 °C coupled to a Waters Synapt G2Si MS. […]"}}, "data": [{"smiles": "CCCC1C(C)=CC2CC=CC3(C)C2C1C(=O)C31C(=O)NC(CCCO)C1=O", "note": "(centres unmarked) [compound 1]", "values": [{"measurement": "binding kinetics (IC50 vs concentration of active ALS)", "setting": "S. cerevisiae ALS", "result": "tight-binding kinetics"}, {"measurement": "covalent modification of ScALS (intact mass shift)", "setting": "ScALS", "result": "mass shifts consistent with covalent addition"}]}]}
